The values that follow come from patent EP4380572B1, “FORMULATION FOR SUBSTITUTED 2-AMINOTHIAZOLES IN THE TREATMENT OF FUNGAL AND FUNGAL-BACTERIAL INFECTIONS OF THE NAIL” (OnychoPharm GmbH, priority 2021, dated 2023).

Data set [1] is described as follows: Solubility of abafungin in different solvents (saturated solution, UV at 302 nm). It is filed as physicochemical. Conditions: shaken 24 h, 19°C. The method, then:
2 ml of solvent were placed in a glass vial containing abafungin powder. The vial was mechanically shaken for 24 h in an environment with controlled temperature (19°C). Thereafter the content of the vials was transferred into Eppendorf tubes and centrifuged at 13000 rpm for 3 min. The supernatant (saturated solution) was collected and assayed using a UV spectrometer at 302 nm (λmax of abafungin). […] Drug concentration in the saturated solution (or diluted solution) was then determined using a standard curve (Table 2). Each experiment was conducted in triplicates. […]

The conditions of data set [2]: cited from earlier work; for stability of the crystalline form: anhydrate polymorphic crystalline forms described in EP 0 718 296 A1.

Consider `Cc1ccc(Oc2ccccc2-c2csc(N=C3NCCCN3)n2)c(C)c1` [abafungin, 4-[2-(2,4-dimethylphenoxy)phenyl]-N-(1,4,5,6-tetrahydropyrimidin-2-yl)-1,3-thiazol-2-amine], for which the “Solubility mg/100 ml mean ± standard deviation” value in data set [1] (solvent 1,2-propanediol) was found to be 219.93 ± 12.10 mg/100 ml; in data set [1] (solvent DMSO), 4483.42 ± 16.30 mg/100 ml; in data set [1] (solvent N-methyl pyrrolidone), 27678.92 ± 434.07 mg/100 ml; in data set [1] (solvent PEG600), 5029.70 ± 12.70 mg/100 ml; in data set [1] (solvent butyl acetate), 822.13 ± 2.55 mg/100 ml; in data set [1] (solvent ethanol), 238.46 ± 2.72 mg/100 ml. The “Solubility mg/100 ml mean ± standard deviation” value in data set [1] (solvent ethyl acetate) was 803.75 ± 35.51 mg/100 ml; in data set [1] (solvent isopropanol myristate), 50.60 ± 4.30 mg/100 ml; in data set [1] (solvent isopropanol) it was 156.14 ± 16.5 mg/100 ml; in data set [1] (solvent water), under 0.032 mg/100 ml.

For the compound `Cc1ccc(Oc2ccccc2-c2csc(N=C3NCCCN3)n2)c(C)c1` [modification 1], the “stability of the crystalline form” value in data set [2] is “metastable”.

As to `Cc1ccc(Oc2ccccc2-c2csc(N=C3NCCCN3)n2)c(C)c1` [modification 2], the “stability at high humidity” value in data set [2] (85% relative humidity, over months) was “stable”. The “stability of the crystalline form” value in data set [2] is “photochemically and thermodynamically more stable”.
